Data on 29 compounds can be found in patent publication EP2061765B1, “Serine-threonine protein kinase and PARP modulators” (Senhwa Biosciences, Inc., priority 2006, dated 2008).

Bounds are passed on as bounds.

Common to all, as to assay: Cell proliferation assay (Alamar Blue)
What all share (format): cell-based
Background: Alamar Blue is a resazurin reagent that responds to reducing activity.

The test system of assay [1] is HCT-116. The settings on record: Homo sapiens, 96 h, HCT-116 cells, four days.
For assay [2], the system named is H1299. The settings on record: Homo sapiens, NCI-H1299, 96 h, H1299 cells, four days. The essentials:
(§1)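 Plate 4,000-5,000 cells per well, add 2X compound dilutions, and incubate four days at 37°C, 5% CO2. Add Alamar Blue, incubate four hours, then record fluorescence (544/590 nm).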

Assay [3] has as its system Hs578T. The following applies: Homo sapiens, Hs-578T, 96 h, Hs578T cells, four days. The essentials: as §1
Assay [4] concerns Jurkat. The settings on record: Homo sapiens, 96 h, Jurkat cells, four days. Summed up:
as §1

The subject of assay [5] is PC3. The settings on record: Homo sapiens, PC-3, 96 h, PC3 cells, four days. Summed up: as §1
Assay [6] relates to MiaPaCa. The settings on record: Homo sapiens, MIA PaCa-2, 96 h, MiaPaCa cells, four days. The essentials:
as §1

In assay [7] the test system is A375. The settings on record: Homo sapiens, A-375, 96 h, A375 cells, four days. The essentials:
as §1

The subject of assay [8] is A549. The following applies: Homo sapiens, 96 h, A549 cells, four days. Summed up:
as §1

The subject of assay [9] is LNCaP. The following applies: Homo sapiens, 96 h, LNCaP cells, four days. The essentials:
as §1

The test system of assay [10] is MCF-7. The following applies: Homo sapiens, MCF7, 96 h, MCF-7 cells, four days. The essentials:
as §1

Assay [11] relates to MDAMB231. The following applies: Homo sapiens, MDA-MB-231, 96 h, MDAMB231 cells, four days. The essentials:
as §1

Assay [12] concerns K-562. The settings on record: Homo sapiens, K562, 96 h, K-562 cells, four days.
Assay [13] has as its system BxPC3. The following applies: Homo sapiens, BXPC-3, 96 h, BxPC3 cells, four days. The essentials:
as §1

Assay [14] relates to PanC1. The settings on record: Homo sapiens, PANC-1, 96 h, PanC1 cells, four days. Summed up: as §1

For the compound `CN(C)CCNc1nc2cc(C(=O)O)ccc2c2cnccc12`, the IC50 in [1] was above 10 µM; in [2], 3.8 µM; in assay [3], 12.9 µM; in assay [4], 23.8 µM; in [5] it was 17.9 µM.
For `COC(=O)c1ccc2c(c1)nc(Nc1ccccc1)c1ccncc12`, in that order: 15 µM, 13.1 µM, 4.78 µM, 6.83 µM and 11.3 µM.
For the compound `COc1cccc(Nc2nc3cc(C(=O)O)ccc3c3cnccc23)c1`, the half-maximal inhibitory concentration (IC50) in assay [1] is above 10 µM; in assay [2], 10.7 µM; in assay [3], 12.9 µM; in assay [4], 6.52 µM; in assay [6], above 10 µM; in assay [5] it was 17.4 µM.
Take `COC(=O)c1ccc2c(c1)nc(Nc1ccc(F)c(Cl)c1)c1ccncc12`: the half-maximal inhibitory concentration (IC50) turned out to be 3.94 µM in [1]; 8.46 µM in [2]; 2.62 µM in assay [3]; 4.25 µM in assay [4]; 9.02 µM in assay [5].
For `COC(=O)c1ccc2c(c1)nc(Nc1cccc(OC)c1)c1ccncc12`, in that order: 15 µM, 7.16 µM, 1.82 µM, 3.4 µM and 11.3 µM.
As for `O=C(O)c1ccc2c(c1)nc(Nc1ccccc1)c1ccncc12` [drawing 286], the half-inhibitory concentration (IC50) in assay [1] is 13.3 µM; in [7], 18.4 µM; in assay [2], 6.84 µM; in assay [3], 14.9 µM; in assay [4], 23.7 µM; in assay [6], 7.51 µM. The compound further showed a half-maximal inhibitory concentration (IC50) in assay [5] of 15.4 µM.
As to `O=C(O)c1ccc2c(c1)nc(Nc1ccc(F)c(Cl)c1)c1ccncc12` [drawing 291], the IC50 in assay [1] turned out to be 4.34 µM; in [7], 3.21 µM; in assay [2], 3.08 µM; in [3] it was 3.31 µM; in assay [4] it was 2.68 µM; in [6], 3.06 µM. This compound also yielded an IC50 in assay [5] of 4.86 µM.
`COC(=O)c1ccc2c(c1)nc(Nc1ccc(F)c(Cl)c1)c1ncncc12` [drawing 295]: the concentration for half-maximal inhibition (IC50) was above 10 µM in [1]; 15.4 µM in assay [2]; 3.7 µM in assay [3]; 20.3 µM in assay [4]; 15.8 µM in assay [5].
In the case of `O=C(O)c1ccc2c(c1)nc(Nc1ccc(F)c(Cl)c1)c1ncncc12` [drawing 296], the IC50 in [2] turned out to be 7.55 µM; in [3], 9.7 µM; in assay [4], 4.29 µM; in assay [6], 1.22 µM; in [5], 18.8 µM.
For `O=C(O)c1ccc2c(c1)nc(Nc1cccc(F)c1)c1ccncc12` [drawing 298] the same measures were 8.32 µM, 5.89 µM, 3.19 µM, 6.86 µM and 9.23 µM.
`O=C(O)c1ccc2c(c1)nc(Nc1cccc(Cl)c1)c1ccncc12` [drawing 299]: the half-maximal inhibitory concentration (IC50) in assay [1] came to 4.02 µM; in [7], 3.95 µM; in assay [2], 3.08 µM; in [3] it was 0.67 µM; in assay [4], 2.37 µM; in [6] it was 2.74 µM. In addition, the IC50 in assay [5] turned out to be 1.51 µM.
In the case of `O=C(O)c1ccc2c(c1)nc(Nc1cc(F)cc(F)c1)c1ncncc12` [drawing 301], the IC50 in assay [1] is 4.06 µM; in assay [7], 2.63 µM; in assay [2] it was 6.62 µM; in assay [3] it was 5.9 µM; in [4], 2.59 µM; in assay [6] it was 0.85 µM. In addition, the concentration for half-maximal inhibition (IC50) in assay [5] is 7.5 µM.
Consider `O=C(O)c1ccc2c(c1)nc(Nc1cccc(F)c1)c1ncncc12` [drawing 302], for which the IC50 is 7.1 µM in assay [1]; 5.11 µM in [7]; 7.24 µM in assay [2]; 3.43 µM in assay [3]; 1.89 µM in [4]; 3.36 µM in assay [6]. Moreover, in assay [5], the half-inhibitory concentration (IC50) stood at 4.71 µM.
Turning to `O=C(O)c1ccc2c(c1)nc(Nc1cccc(Cl)c1)c1ncncc12` [drawing 303], the half-inhibitory concentration (IC50) in assay [1] turned out to be 7.19 µM; in assay [7], 5.45 µM; in assay [2] it was 3.01 µM; in assay [3], 11.2 µM; in assay [4] it was 0.88 µM; in assay [6], 2.09 µM. Moreover, in [5], it took 9.14 µM to reach half-maximal inhibition (IC50).
In the case of `C#Cc1cccc(Nc2nc3cc(C(=O)O)ccc3c3cncnc23)c1` [drawing 304], the IC50 in assay [1] stood at 5.86 µM; in [7], 4.12 µM; in [2] it was 1.55 µM; in [3], 2.86 µM; in assay [4] it was 1.8 µM; in assay [6] it was 0.67 µM. This compound also gave an IC50 in assay [5] of 3.13 µM.
In the case of `Fc1cccc(Nc2nc3cc(-c4nnn[nH]4)ccc3c3cnccc23)c1` [drawing 305], the IC50 is above 10 µM in assay [1]; above 50 µM in [2]; 9.43 µM in assay [4]; above 10 µM in assay [6]; above 50 µM in [5].
As to `Fc1cc(Nc2nc3cc(-c4nnn[nH]4)ccc3c3cnccc23)ccc1Cl` [drawing 306], the IC50 in [1] was above 10 µM; in assay [2], above 50 µM; in [4], 18.8 µM; in assay [6] it was above 10 µM; in assay [5], above 50 µM.
Consider `CNc1ncc2c(n1)c(Nc1ccccc1)nc1cc(C(=O)O)ccc12` [drawing 307], for which the 50% inhibitory concentration (IC50) amounted to 2.99 µM in assay [1]; 1.92 µM in assay [7]; 2.42 µM in assay [2]; 1.84 µM in assay [3]; 0.73 µM in assay [4]; 1.09 µM in [6]. Besides, in assay [5], 3.14 µM corresponded to half-maximal inhibition (IC50).
`O=C(O)c1ccc2c(c1)nc(Nc1ccc(Cl)cc1)c1ccncc12` [drawing 308]: the IC50 in assay [1] was 6.72 µM; in assay [7] it was 4.8 µM; in assay [2] it was 1.94 µM; in assay [3] it was 6.64 µM; in assay [4] it was 2.53 µM; in [6] it was 2.7 µM. The IC50 in [5] is 8.63 µM.
Take `C#Cc1cccc(Nc2nc3cc(C(=O)O)ccc3c3cnccc23)c1` [drawing 309]: the IC50 in assay [7] was found to be 7.36 µM; in assay [2], 3.65 µM; in assay [3] it was 4.03 µM; in assay [4], 2.78 µM; in [6], 3.85 µM; in assay [5], 16.8 µM.
Consider `Clc1cccc(Nc2nc3cc(-c4nnn[nH]4)ccc3c3cnccc23)c1` [drawing 310], for which the IC50 in assay [1] is above 10 µM; in assay [2], above 50 µM; in [4], 14.2 µM; in assay [6], above 10 µM; in [5], 46.6 µM.
Consider `O=C(O)c1ccc2c(c1)nc(Nc1cc(F)cc(F)c1)c1ccncc12` [drawing 311], for which the IC50 in [1] stood at 4.33 µM; in assay [7] it was 5.4 µM; in [2], 8.91 µM; in [3], 9.09 µM; in assay [4], 2.41 µM; in assay [6], 1.35 µM. Also, in assay [5], the IC50 was 10.1 µM.
Consider `N#Cc1cccc(Nc2nc3cc(C(=O)O)ccc3c3cnccc23)c1` [drawing 312], for which the IC50 in [1] is above 10 µM; in assay [3] it was 35.6 µM; in assay [4], 22 µM; in assay [6], above 10 µM; in assay [5], 26.4 µM.
As to `O=C(O)c1ccc2c(c1)nc(Nc1cccc(F)c1)c1ccncc12` [drawing 375], 16.6 µM corresponded to half-maximal inhibition in assay [8] (IC50).
In the case of `Fc1cccc(Nc2nc3cc(-c4nnn[nH]4)ccc3c3cnccc23)c1` [drawing 381], the half-maximal inhibitory concentration (IC50) in assay [8] is above 50 µM; in assay [9], below 0.2 µM; in assay [10], above 50 µM; in assay [11] it was above 50 µM.
As for `Fc1cc(Nc2nc3cc(-c4nnn[nH]4)ccc3c3cnccc23)ccc1Cl` [drawing 382], the IC50 in assay [8] is above 50 µM; in [9], 48.2 µM; in assay [10], 5.94 µM; in assay [11], above 50 µM; in [12], above 50 µM.
Consider `Clc1cccc(Nc2nc3cc(-c4nnn[nH]4)ccc3c3cnccc23)c1` [drawing 386], for which the IC50 in [8] is above 50 µM; in assay [9], 37.4 µM; in [10], above 50 µM; in [11], above 50 µM; in assay [12], 31.2 µM.
As to `N#Cc1cccc(Nc2nc3cc(C(=O)O)ccc3c3cnccc23)c1` [drawing 388], the concentration for half-maximal inhibition (IC50) was above 50 µM in assay [8]; 15.5 µM in assay [9]; 41 µM in assay [10]; 28.7 µM in [11]; 9.15 µM in assay [12].
In the case of `CCOC(=O)CCNC(=O)c1ccc2c(c1)nc(Nc1cccc(C(F)(F)F)c1)c1nc(NC3CC3)ncc12` [drawing 514], the 50% inhibitory concentration (IC50) in assay [13] came to 8.76 µM; in assay [14] it was 0.44 µM.

What is called IC50 is the concentration that inhibits the measured activity by half.
